{"source": "patent US20140256765A1", "about": "“TRANSMUCOSAL DRUG DELIVERY SYSTEM” (priority 2013, published 2014)", "origin": "cited, not measured here", "key": {"[1]": {"settings": "at a pH of 6.8"}, "[2]": {"settings": "in vivo"}}, "data": [{"smiles": "CN1CCCC1c1cccnc1", "note": "(centres unmarked) [nicotine]", "values": [{"measurement": "nicotine in the free base form", "setting": "[1]", "result": "about 10%"}, {"measurement": "time to peak of plasma nicotine levels", "setting": "[2]", "result": "about 10 minutes"}]}]}
